Measurements published in patent US20240173231A1, “COSMETIC SKIN CARE COMPOSITION” (Conopco, Inc., d/b/a UNILEVER, priority 2021, published 2024).
Marks after values point to notes of the source that are not given here.

Columns and labels:
Type in all cases: cell-based, human
[1] = tested on: YAP/TAZ; assay: Nuclear translocation assay to identify activators of YAP/TAZ bioactivity, fibroblasts on fibronectin micro-islands; settings: for Mechano-transduction Activation (% Increase): 20 uM, 2 hours, YAP/TAZ nucleus/cytoplasm ratio normalised to control and LPA; for Induction of mechano-transduction signaling (translocation of cytoplasmic YAP/TAZ into the nucleus), in words: over the vehicle DMSO
Experimental: Cellular localization of YAP can be regulated by the rigidity of the substrate or ECM that cells are attached to, or the degree to which cells can spread on a substrate. Thus in vitro models can be useful to engineer low states of YAP activity.
Briefly, primary human dermal fibroblasts were seeded on microprinted substrate islands (<1000 μm^2) of fibronectin and incubated overnight at 37° C., 5% CO2 in a cell culture incubator. Next, fibroblasts were treated with materials described in Table 1. After the treatment period of 2 hours, cells were fixed and stained: nuclei were stained with Hoechst dye and YAP/TAZ was stained with a mouse antibody to YAP/TAZ (Santa Cruz Biotechnology), followed by the secondary fluorescently tagged antibody (donkey anti-mouse AlexaFluor 488). Microscopic images were acquired and YAP/TAZ fluorescent signal measured in the cytoplasm and nucleus of each cell. The fluorescence intensity measured in the nucleus is divided by the one measured in the cytoplasm to obtain the YAP/TAZ ratio readout as described below Table 1.

[2] = tested on: procollagen-I; assay: Procollagen type 1 C-peptide (PIP) EIA on media of dermal fibroblasts on soft hydrogel; settings: for Procollagen: day 6; for Effect on procollagen-I synthesis in human dermal fibroblasts, in words: substrates mimicking the biomechanical properties of skin
Experimental: Since YAP activity is highly dependent on substrate rigidity it was necessary to develop and perform assays on substrates with tunable mechanical properties.
Primary human dermal fibroblasts (P3) are plated at 31,579 cells per cm2 into 24-well […] collagen coated hydrogel plates in 1 ml 2% fetal bovine serum in Dulbecco's Modified Eagles Media (DMEM) and maintained 24 hours in a cell culture incubator at 5% carbon dioxide. The cells were washed twice with Dulbecco's Phosphate Buffered Saline then 1 ml of DM EM supplemented with 0.6% fatty acid free bovine serum albumin. The cells were maintained for 24 hours in a cell culture incubator at 5% carbon dioxide.
Two hundred microliter of media was removed from each well. To each well were added 100 ul of 500 ug per ml ascorbic acid in DMEM supplemented with 0.6% fatty acid free bovine serum albumin. Test materials were diluted to 10X final concentration in DMEM supplemented with 0.6% fatty acid free bovine serum albumin or PBS supplemented with 0.1% fatty acid free bovine serum albumin and 100 ul dosed to duplicate wells. The cells/plates were incubated for 3 days at 37° C., 5% CO2 in a cell culture incubator. On day 3 the media was removed from the wells and 900u1 DMEM supplemented with 0.6% fatty acid free bovine serum albumin plus 50 ug/ml ascorbic acid. The treatments were added as described above. On day 6 after the start of treatment remove 100 ul of the media from each well for the determination of the level of procollagen.
The amount of procollagen in the media samples was determined using the Takara Bio Procollagen type 1 C-peptide (PIP) detection EIA assay. The assay was run following the manufacturer's instructions as following—100 ul of the reconstituted antibody-POD conjugate to the wells of the assay for the number required for the media samples and the standard curve. The procollagen standard solution was 2-fold serial diluted using sample diluent to generate a standard curve of 640, 320, 160, 80, 40, 20, 10 and 0 ng/ml procollagen. The media samples were diluted 1/20 with sample diluent. Twenty ul of the standard curve dilutions were added to the wells of the assay plate in duplicate. The 20 ul media dilutions in sample diluent were added to the wells of the assay plate in singlet. The plate was incubated for 3 hours at 37° C., washed 4 times with phosphate buffered saline wash buffer and tapped to remove all residual wash buffer. One hundred ul of substrate solution (TMBZ) was added to each well and incubate 15 minutes. One hundred ul of stop solution was added to each well, the plate shaken to mix and the optical density at 450 nm read in a plate reader. The amount of procollagen in the test samples was calculated from the standard curve values and corrected for the dilution factor and the volume in the well to generate the ng of procollagen in the samples. The amount of procollagen induced by the test materials was compared to the basal media.

[3] = tested on: ELN; assay: mRNA gene expression in dermal fibroblasts on 2 kPa hydrogel (RNA-seq); settings: vs. Vehicle
Experimental: (§1) Primary human dermal fibroblasts (P3) are plated at 31,579 cells per cm^2 into 6-well 2 kPa hydrogel collagen coated plates in 2 ml 2% fetal bovine serum in Dulbecco's Modified Eagles Media (DMEM) and maintained 24 hours in a cell culture incubator at 5% carbon dioxide. The cells were washed twice with Dulbecco's Phosphate Buffered Saline DPBS) then 1 ml of DMEM supplemented with 0.6% fatty acid free bovine serum albumin (FAF-BSA). The cells were maintained for 24 hours in a cell culture incubator at 5% carbon dioxide. Four hundred ul of media was removed from each well of the plates. Two hundred ul of the YAP active treatments diluted at 10X the desired final concentration plus 1% DMSO were diluted in DMEM supplemented with 0.6% fatty acid free bovine serum albumin. The control wells were treated with two hundred ul of 1% DMSO were diluted in DMEM supplemented with 0.6% fatty acid free bovine serum albumin. Two hundred ul of water-soluble YAP actives diluted at 10X the desired final concentration diluted in DPBS+0.1% FAF-BSA. The controls wells were treated with 200 ul DPBS+0.1% FAF-BSA. The plates were incubated overnight at 37° C. at 5% CO2. In the AM the plates were dosed with the 220 ul of the water-soluble YAP actives in DPBS +0.1% FAF-BSA or the control well with 220 ul DPBS +0.1% FAF-BSA. After 6 hours the media was aspirate from the wells, the cells washed 2X with DPBS and the plate frozen at -80 °C until the RNA was isolated.
(§2) The RNA was isolated using the Qiagen RNeasy mini kit following the manufacturer's instruction with the following modifications—
(§3) 700 ul of RLT buffer plus beta-mercaptoethanol was added to each well immediately after removing the plate from the freezer. The plate was placed on an orbital shaker at 500 revolution per minute up for 15 minutes while the buffer thawed and extracted the cells. The cell lysate was transfer to Qiashedders and pass the Qiashedder to disrupt the cells. The recovery lysate was mixed with an equal volume of 70% Ethanol, 30% water. The RNA was purified on the minicolumns including the DNase step to remove DNA contamination. The RNA samples were quantitated on a NanoDrop 800 and quantity access on an Agilent Bio-analyzer. An aliquot of the RNA samples was reverse transcribed in cDNA then diluted to 5 ng/ul of input RNA. The cDNA samples were evaluated for the expression level of select markers using comparative Taqman analysis using 2 ul of the cDNA per reaction. The level of RNA expression was compared using the delta delta Cycle threshold (ddCt) method. Aliquot of the RNAs were also submitted to Lexogen (Vienna, Austria) for RNA-seq analysis.
(§4) Shown in Table 5 is the average percent increase in mRNA expression for genes involved in extracellular matrix production following ORG treatment relative to the vehicle control, along with the Benjamini-Hochberg adjusted p-values (adj.p.value) calculated by converting the average log2fold-change (calculated using DESeq2) to a percentage increase using the following formula: Percent increase=100*(2^log2FC)-100.

[4] = tested on: FBN1; assay: as above; settings: vs. Vehicle
Experimental: as §1, §2, §3, §4

[5] = tested on: HAS2; assay: as above; settings: vs. Vehicle
Experimental: as §1, §2, §3, §4

[6] = tested on: COL3A1; assay: as above; settings: vs. Vehicle
Experimental: as §1, §2, §3, §4

[7] = tested on: COL4A1; assay: as above; settings: vs. Vehicle
Experimental: as §1, §2, §3, §4

[8] = tested on: FN1; assay: as above; settings: vs. Vehicle
Experimental: as §1, §2, §3, §4

[9] = tested on: COL5A1; assay: as above; settings: vs. Vehicle
Experimental: as §1, §2, §3, §4

[10] = tested on: COL1A1; assay: as above; settings: vs. Vehicle
Experimental: as §1, §2, §3, §4

[11] = tested on: CRABPII (cellular retinoic acid binding protein II); assay: CRABPII gene expression by TaqMan real time PCR in dermal fibroblasts
Experimental: as §1
700 ul of RLT buffer plus beta-mercaptoethanol was added to each well immediately after removing the plate from the freezer. The plate was placed on an orbital shaker at 500 revolution per minute up for 15 minutes while the buffer thawed and extracted the cells. […] The RNA samples were quantitated on a NanoDrop 800 and quantity access on an Agilent Bio-analyzer. […] The cDNA samples were evaluated for the expression level of select markers using comparative Taqman analysis using 2 ul of the cDNA per reaction. […]
An independent experiment was conducted using cell culture and RNA isolation methods described in Example 2 to further elucidate the retinyl propionate+ORG synergy (as observed in Table 4) by analyzing a well-described marker of a retinoid activity CRABPII (cellular retinoic acid binding protein II). […] Then, 10 ng cDNA samples per reaction were evaluated for the expression level of CRABPII using primers and comparative TaqMan™ Gene Expression Assay and TaqMan™ Fast Advanced Master (FAM) Mix (purchased from Applied Biosystems™) and run in a ViiA™ 7 Real Time PCR System (from Applied Biosystems™). Percent increases in CRABPII expression was calculated by converting the log2fold-change to a percentage increase using the following formula: Percent increase=100*(2^log2FC)-100.

[12] = Experiment 1, 50 μM, vehicle control 1933.3
[13] = Experiment 2, 50 μM, vehicle control 2240.5

Row | Compound | Mechano-transduction Activation (% Increase) [1] | Induction of mechano-transduction signaling (translocation of cytoplasmic YAP/TAZ into the nucleus), in words [1] | Procollagen [2, 12] [ng/mL] | Procollagen [2, 13] [ng/mL] | Effect on procollagen-I synthesis in human dermal fibroblasts, in words [2] | further results
1 | CCCCCCCC/C=C\CCCCCCCC(=O)OC[C@@H](O)COP(=O)([O-])O.[Na+] [LPA, Lysophosphatidic acid] | 100 +/− 1 ** % | induces mechano-transduction signaling | – | – | – | Procollagen ([2]; Experiment 1, 30 μM, vehicle control 1933.3): 3532.6 ng/mL; Procollagen ([2]; Experiment 2, 30 μM, vehicle control 2240.5): 3381.3 ng/mL
2 | CCCCCCCC/C=C\CCCCCCCC(=O)OCC(O)CO (racemic) [1-oleoyl-rac-glycerol] | 17 +/− 10 ** % | significantly induces mechano-transduction signaling | – | – | – | –
3 | oleoyl-rac-glycerol [ORG (Monomuls ®)] | – | – | 3084.2 | 3256.8 | promotes the synthesis of procollagen-I | ELN mRNA expression, Percent Increase [3]: 18.49%; FBN1 mRNA expression, Percent Increase [4]: 12.36%; HAS2 mRNA expression, Percent Increase [5]: 164.75%; COL3A1 mRNA expression, Percent Increase [6]: 15.35%; COL4A1 mRNA expression, Percent Increase [7]: 20.36%; FN1 mRNA expression, Percent Increase [8]: 15.49%; COL5A1 mRNA expression, Percent Increase [9]: 10.73%; COL1A1 mRNA expression, Percent Increase [10]: 21.16%; Procollagen ([2]; Experiment 3, 50 μM, vehicle control 1301.9): 2275.4 ng/mL; Effect on CRABPII gene expression, in words [11]: more modest increase; Percent Increase in CRABPII Gene Expression vs Vehicle ([11]; 50 μM): 54%
4 | CC(C)c1cc2c(cc1O)[C@@]1(C)CC[C@H](O)C(C)(C)[C@@H]1CC2 [Hinokiol] | – | – | 1946.1 | 1843.5 | do not exhibit such a pronounced effect | –
5 | CCCCCCCCCCCCCCC(=O)OCC(O)CO (racemic) [1-Pentadecanoyl-rac-glycerol] | 25 +/− 26% | do not induce mechano-transduction | – | – | – | –
6 | CCC(=O)OC/C=C(C)/C=C/C=C(C)/C=C/C1=C(C)CCCC1(C)C [retinyl propionate] | – | – | – | – | do not exhibit such a pronounced effect | Procollagen ([2]; Experiment 3, 10 μM, vehicle control 1301.9): 1452.0 ng/mL; Effect on CRABPII gene expression, in words [11]: robust increase in CRABPII gene expression; Percent Increase in CRABPII Gene Expression vs Vehicle ([11]; 10 μM): 138%
7 | C=CCc1ccc(O)c(-c2cc(CC=C)ccc2O)c1 [Magnolol] | – | – | – | 2512.8 | do not exhibit such a pronounced effect | –
8 | CCCCCCCCCCCCCCCCCC(=O)OCC(O)CO (racemic) [1-Stearoyl-rac-glycerol] | 6 +/− 7% | do not induce mechano-transduction | – | – | – | –
9 | CCCCCCCC/C=C\CCCCCCCC(=O)NCC(=O)O [Oleoyl Glycinate] | – | – | 2474.9 | – | do not exhibit such a pronounced effect | –
